# Source: US20070128217A1 (priority 2003, published 2007)
# Assays:
# [1] = system: antibodies in sera from SARS patients (sera 1a, 1b, 2, 6, 37, 62, London, SARS-yellow, SARS-green); type: binding, human; parameters: Binding of serum 6 to linear peptides of protein X1 of SARS-CoV Urbani / Binding of serum 37 to linear peptides of protein X1 of SARS-CoV Urbani / Binding of serum 6 to looped/cyclic peptide (PEPSCAN-ELISA) / Binding of serum 37 to looped/cyclic peptide (PEPSCAN-ELISA) / Binding of serum 37 to looped/cyclic peptides of protein X1 of SARS-CoV Urbani / Binding of serum 6 to linear peptides of protein X2 / Binding of serum 37 to linear peptides of protein X2 / Binding of serum 37 to looped/cyclic peptides of protein X2 of SARS-CoV Urbani / Binding of serum 6 to linear peptides of protein M of SARS-CoV Urbani / Binding of serum 37 to linear peptides of protein M of SARS-CoV Urbani / Binding of serum 6 to looped/cyclic peptides of protein M of SARS-CoV Urbani / Binding of serum 37 to looped/cyclic peptides of protein M of SARS-CoV Urbani / Binding of serum 6 to linear peptides of protein X3 of SARS-CoV Urbani / Binding of serum 37 to linear peptides of protein X3 of SARS-CoV Urbani / Binding of serum 37 to looped/cyclic peptides of protein X3 of SARS-CoV Urbani / Binding of serum 6 to linear peptides of protein X4 of SARS-CoV Urbani / Binding of serum 37 to linear peptides of protein X4 of SARS-CoV Urbani / Binding of serum 37 to looped/cyclic peptides of protein X4 of SARS-CoV Urbani / Binding of serum 6 to linear peptides of protein X5 of SARS-CoV Urbani / Binding of serum 37 to linear peptides of protein X5 of SARS-CoV Urbani / Binding of serum 37 to looped/cyclic peptides of protein X5 of SARS-CoV Urbani / Binding of serum 6 to linear peptides of protein N of SARS-CoV Urbani / Binding of serum 37 to linear peptides of protein N of SARS-CoV Urbani / Binding of serum 6 to linear peptide (PEPSCAN-ELISA) / Binding of serum 1a to looped/cyclic peptides of protein N of SARS-CoV Urbani / Binding of serum 1b to looped/cyclic peptides of protein N of SARS-CoV Urbani / Binding of serum 2 to looped/cyclic peptides of protein N of SARS-CoV Urbani / Binding of serum 6 to looped/cyclic peptides of protein N of SARS-CoV Urbani / Binding of serum 37 to looped/cyclic peptides of protein N of SARS-CoV Urbani / Binding of serum 62 to looped/cyclic peptides of protein N of SARS-CoV Urbani / Binding of serum London to looped/cyclic peptides of protein N of SARS-CoV Urbani / Binding of serum SARS-green to looped/cyclic peptides of protein N of SARS-CoV Urbani: unit not given here
# [2] = system: control sera (pooled serum of ten healthy LUMC hospital workers; commercial negative donor pooled serum from the Dutch bloodbank); type: binding, human; parameters: Binding of Control serum LUMC to linear peptides / Binding of Control serum Blood-bank to linear peptides / Binding of Control serum LUMC to looped peptides / Binding of Control Serum Blood-Bank to Looped peptides / Binding of Control serum LUMC to linear peptides of the protein M of SARS-CoV Urbani / Binding of Control serum Blood-bank to linear peptides of the protein M of SARS-CoV Urbani / Binding of Control serum LUMC to looped peptides of the protein M of SARS-CoV Urbani / Binding of Control Serum Blood-Bank to Looped peptides of the protein M of SARS-CoV Urbani: unit not given here
# [3] = system: rabbit serum obtained by immunizing a rabbit with the SARS-CoV strain Frankfurt 1; type: binding; parameters: Binding of a rabbit serum to linear peptides / Binding of a rabbit serum to looped peptides / Rabbit serum linear peptides / Rabbit serum looped peptides / Binding of a rabbit serum to linear peptides of protein N of SARS-CoV Urbani (Rabbit serum linear peptides) / Binding of a rabbit serum to looped/cyclic peptides of protein N of SARS-CoV Urbani (Rabbit serum looped peptides): unit not given here
sequence,measurement,setting,value
TSLSLHKLLQTLVLK,Binding of serum 1a to linear peptides of protein X2,[1],0.7
same,Binding of serum 1a to looped/cyclic peptides of protein X2 of SARS-CoV Urbani,[1],0.5
same,Binding of serum 1b to linear peptides of protein X2,[1],0.6
same,Binding of serum 1b to looped/cyclic peptides of protein X2 of SARS-CoV Urbani,[1],0.4
same,Binding of serum 2 to linear peptides of protein X2,[1],0.5
same,Binding of serum 2 to looped/cyclic peptides of protein X2 of SARS-CoV Urbani,[1],0.3
same,Binding of serum 6 to linear peptides of protein X2,[1],1.0
same,Binding of serum 6 to looped/cyclic peptides of protein X2 of SARS-CoV Urbani,[1],0.3
same,Binding of serum 37 to linear peptides of protein X2,[1],0.6
same,Binding of serum 37 to looped/cyclic peptides of protein X2 of SARS-CoV Urbani,[1],0.4
same,Binding of serum 62 to linear peptides of protein X2,[1],0.7
same,Binding of serum 62 to looped/cyclic peptides of protein X2 of SARS-CoV Urbani,[1],0.6
same,Binding of serum London to linear peptides of protein X2,[1],0.6
same,Binding of serum London to looped/cyclic peptides of protein X2 of SARS-CoV Urbani,[1],0.2
same,Binding of serum SARS-green to linear peptides of protein X2,[1],0.7
same,Binding of serum SARS-green to looped/cyclic peptides of protein X2 of SARS-CoV Urbani,[1],0.4
same,Binding of serum SARS-yellow to linear peptides of protein X2,[1],0.6
same,Binding of serum SARS-yellow to looped/cyclic peptides of protein X2 of SARS-CoV Urbani,[1],0.5
same,Binding of Control Serum Blood-Bank to Looped peptides,[2],0.6
same,Binding of Control serum Blood-bank to linear peptides,[2],0.9
same,Binding of Control serum LUMC to linear peptides,[2],0.6
same,Binding of Control serum LUMC to looped peptides,[2],0.6
same,Binding of a rabbit serum to linear peptides,[3],0.2
same,Binding of a rabbit serum to looped peptides,[3],0.5
ALTCTSTHFAFACAD,Binding of serum 1a to linear peptides of protein X4 of SARS-CoV Urbani,[1],0.8
same,Binding of serum 1a to looped/cyclic peptides of protein X4 of SARS-CoV Urbani,[1],0.8
same,Binding of serum 1b to linear peptides of protein X4 of SARS-CoV Urbani,[1],0.8
same,Binding of serum 1b to looped/cyclic peptides of protein X4 of SARS-CoV Urbani,[1],0.7
same,Binding of serum 2 to linear peptides of protein X4 of SARS-CoV Urbani,[1],0.5
same,Binding of serum 2 to looped/cyclic peptides of protein X4 of SARS-CoV Urbani,[1],0.7
same,Binding of serum 6 to linear peptides of protein X4 of SARS-CoV Urbani,[1],0.6
same,Binding of serum 6 to looped/cyclic peptides of protein X4 of SARS-CoV Urbani,[1],0.7
same,Binding of serum 37 to linear peptides of protein X4 of SARS-CoV Urbani,[1],0.9
same,Binding of serum 37 to looped/cyclic peptides of protein X4 of SARS-CoV Urbani,[1],0.9
same,Binding of serum 62 to linear peptides of protein X4 of SARS-CoV Urbani,[1],0.9
same,Binding of serum 62 to looped/cyclic peptides of protein X4 of SARS-CoV Urbani,[1],0.9
same,Binding of serum London to linear peptides of protein X4 of SARS-CoV Urbani,[1],0.8
same,Binding of serum London to looped/cyclic peptides of protein X4 of SARS-CoV Urbani,[1],0.3
same,Binding of serum SARS-green to linear peptides of protein X4 of SARS-CoV Urbani,[1],0.8
same,Binding of serum SARS-green to looped/cyclic peptides of protein X4 of SARS-CoV Urbani,[1],0.8
same,Binding of serum SARS-yellow to linear peptides of protein X4 of SARS-CoV Urbani,[1],0.7
same,Binding of serum SARS-yellow to looped/cyclic peptides of protein X4 of SARS-CoV Urbani,[1],0.8
same,Binding of Control Serum Blood-Bank to Looped peptides,[2],0.9
same,Binding of Control serum Blood-bank to linear peptides,[2],0.7
same,Binding of Control serum LUMC to linear peptides,[2],0.8
same,Binding of Control serum LUMC to looped peptides,[2],0.8
same,Rabbit serum linear peptides,[3],0.6
same,Rabbit serum looped peptides,[3],0.6
IYSHLLLVAAGMEAQ,Binding of serum 1a to linear peptides of protein X1 of SARS-CoV Urbani,[1],0.6
same,Binding of serum 1a to looped/cyclic peptide (PEPSCAN-ELISA),[1],0.5
same,Binding of serum 1b to linear peptides of protein X1 of SARS-CoV Urbani,[1],0.5
same,Binding of serum 1b to looped/cyclic peptide (PEPSCAN-ELISA),[1],0.4
same,Binding of serum 2 to linear peptides of protein X1 of SARS-CoV Urbani,[1],0.5
same,Binding of serum 2 to looped/cyclic peptide (PEPSCAN-ELISA),[1],0.3
same,Binding of serum 6 to linear peptides of protein X1 of SARS-CoV Urbani,[1],0.4
same,Binding of serum 6 to looped/cyclic peptide (PEPSCAN-ELISA),[1],0.3
same,Binding of serum 37 to linear peptides of protein X1 of SARS-CoV Urbani,[1],0.6
same,Binding of serum 37 to looped/cyclic peptide (PEPSCAN-ELISA),[1],0.5
same,Binding of serum 62 to linear peptides of protein X1 of SARS-CoV Urbani,[1],0.6
same,Binding of serum 62 to looped/cyclic peptide (PEPSCAN-ELISA),[1],0.5
same,Binding of serum London to linear peptides of protein X1 of SARS-CoV Urbani,[1],0.3
same,Binding of serum London to looped/cyclic peptide (PEPSCAN-ELISA),[1],0.2
same,Binding of serum SARS-green to linear peptides of protein X1 of SARS-CoV Urbani,[1],0.2
same,Binding of serum SARS-green to looped/cyclic peptide (PEPSCAN-ELISA),[1],0.2
same,Binding of serum SARS-yellow to linear peptides of protein X1 of SARS-CoV Urbani,[1],0.3
same,Binding of serum SARS-yellow to looped/cyclic peptide (PEPSCAN-ELISA),[1],0.2
same,Binding of Control Serum Blood-Bank to Looped peptides,[2],0.4
same,Binding of Control serum Blood-bank to linear peptides,[2],0.5
same,Binding of Control serum LUMC to linear peptides,[2],0.5
same,Binding of Control serum LUMC to looped peptides,[2],0.5
same,Binding of a rabbit serum to linear peptides,[3],0.1
same,Binding of a rabbit serum to looped peptides,[3],0.4
